Laboratory results from patent US20130109721A1, “FAAH Inhibitors” (Ironwood Pharmaceuticals, Inc., priority 2009, published 2013).

Molecular target: T1, FAAH (Homo sapiens, UniProt O00519)
T1 construct: FAAH activity was assayed in the respective homogenates described herein (Rat brain, Mouse brain or Human brain); tissue Analytical Biological Services (ABS), Inc; host or cells: human brain cortex membrane homogenate
T1 sequence (O00519 1-579): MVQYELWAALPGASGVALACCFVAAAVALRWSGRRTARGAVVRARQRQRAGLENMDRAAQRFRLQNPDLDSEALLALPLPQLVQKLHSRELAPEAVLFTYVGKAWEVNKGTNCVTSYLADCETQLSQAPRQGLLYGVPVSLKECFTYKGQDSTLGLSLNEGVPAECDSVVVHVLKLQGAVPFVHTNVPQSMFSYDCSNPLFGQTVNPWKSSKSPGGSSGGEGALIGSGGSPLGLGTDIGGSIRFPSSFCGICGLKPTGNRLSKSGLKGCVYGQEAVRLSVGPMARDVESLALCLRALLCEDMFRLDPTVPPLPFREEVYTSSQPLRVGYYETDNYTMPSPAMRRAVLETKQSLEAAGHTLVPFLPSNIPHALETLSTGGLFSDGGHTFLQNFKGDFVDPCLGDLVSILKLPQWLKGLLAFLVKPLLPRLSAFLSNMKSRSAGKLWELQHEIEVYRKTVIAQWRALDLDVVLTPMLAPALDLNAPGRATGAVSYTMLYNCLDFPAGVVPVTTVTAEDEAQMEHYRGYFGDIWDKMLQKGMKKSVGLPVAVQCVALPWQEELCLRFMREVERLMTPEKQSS
Experiment: FAAH inhibition, human brain membrane homogenate assay
Assay type: biochemical
Settings: average; FAAH extracted from human brain homogenate; read-out: Human brain FAAH Extract IC50
Protocol: About 10 g of frozen normal human brain cortex tissue was obtained (e.g., from Analytical Biological Services (ABS), Inc. (Wilmington, Del.)). The brain tissue was thawed and transferred to a large ceramic mortar on ice. 50 mL of ice-cold “homogenization buffer” (20 mM HEPES buffer, pH 7.0, with 1 mM MgCl2) was added to the mortar and the tissue was homogenized with a pestle. The homogenate was centrifuged at 36,500 g for 20 minutes at 4° C. The supernatants were discarded and the pellets were re-suspended in homogenization buffer and centrifuged as before. The supernatants were again discarded and the pellets were re-suspended in 30 mL homogenization buffer and incubated in a 37° C. water bath for 20 minutes. The homogenate was then centrifuged as before. The supernatant was discarded and the membrane pellets were re-suspended in 30 mL “resuspension buffer” (50 mM Tris-HCl buffer, pH 7.4, containing 1 mM EDTA and 3 mM MgCl2). A Bradford Protein assay was performed to determine protein concentration. The protein was aliquotted into screw cap Cryo tubes each containing ˜200 μL, flash frozen in liquid nitrogen and stored at −80° C. until used for the assay.
FAAH activity was assayed in the respective homogenates described herein (Rat brain, Mouse brain or Human brain) for certain exemplary substrate compounds using a modification of the method of Omeir et al. (1995 Life Sci 56:1999) and Fowler et al. (1997 J. Pharmacol Exp Ther 283:729). For assay of FAAH activity in rat brain membrane (RBM) homogenates, RBM homogenates (7 μg protein in 20 μL final volume of 10 mM Tris pH 6.5) were mixed with 180 μL of a mixture of the following: 2.0 μM unlabelled anandamide, 0.03 μCi radio labeled anandamide [ethanolamine 1-^3H] (40-60 Cis/mmol, product number ART-626, American Radiolabeled Chemicals, St. Louis, Mo.), 1 mg/mL Bovine Serum Albumin (fatty acid-free BSA, electrophoresis grade, Sigma, St. Louis, Mo.), 10 mM Tris-HCl (pH 6.5), and 1 mM EDTA in the presence and absence of test compounds (vehicle was DMSO at a final concentration of 1%) and incubated for 10 minutes at 37° C. Samples were placed on ice to terminate the reactions.
^3H-ethanolamine product and un-reacted ^3H-anandamide substrate were then separated either: (1) by using chloroform/methanol extraction or (2) by passing the reaction mixture through a glass fiber filter containing activated charcoal. Samples were extracted with chloroform/methanol by adding 0.4 mL of chloroform/methanol (1:1 v/v), vigorously mixing the samples, and separating the aqueous and organic phases by centrifugation. Radioactivity (corresponding to FAAH-catalyzed breakdown of ^3H-anandamide) found in aliquots (0.2 mL) of the aqueous phase was determined by liquid scintillation counting with quench correction. IC50 values were determined as described by Jonsson et al. (2001 Br. J. Pharmacol. 133:1263). Alternatively, reactions were purified using a modification of the solid-phase extraction method described by Wilson et al (2003 Anal. Biochem. 318:270). This method was modified as follows: after reactions were incubated at 37° C. for 10 minutes and chilled on ice, the reaction mixtures were acidified by adding 10 μL of sodium phosphate solution [0.5M (pH 2.0)]. Next, 90 μL aliquots of the acidified reaction mixtures were applied to activated charcoal (that had been previously washed with methanol as described by Wilson et al. (supra)) containing 80 μL of water on top of a glass fiber filter, centrifuged, and the radioactivity in the eluate was counted as described previously by Wilson et al. (supra).
Table 1 provides activity data for certain compounds tested for inhibition of FAAH using the FAAH rat, mouse and human brain homogenate assays. […]

Row | IC50 | SMILES
1 | 0.542 µM | COc1cc(NC(=O)C(=O)c2cc(C)n(Cc3ccc(Cl)cc3)c2C)ccn1 [Compound I-01, 2-(1-(4-chlorobenzyl)-2,5-dimethyl-1H-pyrrol-3-yl)-N-(2-methoxypyridin-4-yl)-2-oxoacetamide]
2 | 0.097 µM | Cc1c(C(=O)C(=O)Nc2ccncc2)c2cc(Cl)sc2n1Cc1ccc(Cl)cc1 [Compound I-02, 2-(2-chloro-6-(4-chlorobenzyl)-5-methyl-6H-thieno[2,3-b]pyrrol-4-yl)-2-oxo-N-(pyridin-4-yl)acetamide]
3 | 0.094 µM | COc1cc(NC(=O)C(=O)c2c(C)n(Cc3ccc(Cl)cc3)c3sc(Cl)cc23)ccn1 [Compound I-03, 2-(2-chloro-6-(4-chlorobenzyl)-5-methyl-6H-thieno[2,3-b]pyrrol-4-yl)-N-(2-methoxypyridin-4-yl)-2-oxoacetamide]
4 | 0.051 µM | Cc1cc2c(s1)c(C(=O)C(=O)Nc1ccncc1)c(C)n2Cc1ccc(Cl)cc1 [Compound I-04, 2-(4-(4-chlorobenzyl)-2,5-dimethyl-4H-thieno[3,2-b]pyrrol-6-yl)-2-oxo-N-(pyridin-4-yl)acetamide]
5 | 0.004 µM | COc1cc(NC(=O)C(=O)c2c(C)n(Cc3ccc(Cl)cc3)c3cc(C)sc23)ccn1 [Compound I-05, 2-(4-(4-chlorobenzyl)-2,5-dimethyl-4H-thieno[3,2-b]pyrrol-6-yl)-N-(2-methoxypyridin-4-yl)-2-oxoacetamide]
6 | 1.5 µM | Cc1c(C(=O)C(=O)Nc2cccc(Cl)c2)c2sccc2n1Cc1ccc(Cl)cc1 [Compound I-06, 2-(4-(4-chlorobenzyl)-5-methyl-4H-thieno[3,2-b]pyrrol-6-yl)-N-(3-chlorophenyl)-2-oxoacetamide]
7 | 0.018 µM | COc1cc(NC(=O)C(=O)c2c(C)n(Cc3ccc(Cl)cc3)c3ccsc23)ccn1 [Compound I-07, 2-(4-(4-chlorobenzyl)-5-methyl-4H-thieno[3,2-b]pyrrol-6-yl)-N-(2-methoxypyridin-4-yl)-2-oxoacetamide]
8 | 1.22 µM | COc1cc(NC(=O)C(=O)c2cc(C)n(Cc3ccc(F)cc3)c2C)ccn1 [Compound I-17, 2-(1-(4-fluorobenzyl)-2,5-dimethyl-1H-pyrrol-3-yl)-N-(2-methoxypyridin-4-yl)-2-oxoacetamide]
9 | > 50 µM | COc1cc(NC(=O)C(=O)c2cc(-c3ccccc3)n(Cc3ccc(Cl)cc3)c2C)ccn1 [Compound I-27, 2-(1-(4-chlorobenzyl)-2-methyl-5-phenyl-1H-pyrrol-3-yl)-N-(2-methoxypyridin-4-yl)-2-oxoacetamide]
10 | 0.897 µM | Cc1cc(C(=O)C(=O)Nc2ccnc(Cl)c2)c(C)n1Cc1ccc(Cl)cc1 [Compound I-28, 2-(1-(4-chlorobenzyl)-2,5-dimethyl-1H-pyrrol-3-yl)-N-(2-chloropyridin-4-yl)-2-oxoacetamide]
11 | 3.4 µM | Cc1cc(C(=O)C(=O)Nc2ccncc2)c(C)n1Cc1ccc(Cl)cc1 [Compound I-30, 2-(1-(4-chlorobenzyl)-2,5-dimethyl-1H-pyrrol-3-yl)-2-oxo-N-(pyridin-4-yl)acetamide]
12 | 3.2 µM | Cc1cc(C(=O)C(=O)Nc2cccnc2)c(C)n1Cc1ccc(Cl)cc1 [Compound I-31, 2-(1-(4-chlorobenzyl)-2,5-dimethyl-1H-pyrrol-3-yl)-2-oxo-N-(pyridin-3-yl)acetamide]
13 | > 5 µM | Cc1cc(C(=O)C(=O)Nc2ccccc2)c(C)n1Cc1ccc(Cl)cc1 [Compound I-32, 2-(1-(4-chlorobenzyl)-2,5-dimethyl-1H-pyrrol-3-yl)-2-oxo-N-phenylacetamide]
